Results reported in patent US9907857B2, “Peptide having cell membrane penetrating activity” (EWHA UNIVERSITY-INDUSTRY COLLABORATION FOUNDATION, priority 2006, dated 2018).

B1: full length TCTP: translationally controlled tumor protein, 172 amino acids, expressed with 6 histidine tag in E. coli (protein, UniProt P13693 1-172, looked up)
chain: MIIYRDLISHDEMFSDIYKIREIADGLCLEVEGKMVSRTEGNIDDSLIGGNASAEGPEGEGTESTVITGVDIVMNHHLQETSFTKEAYKKYIKDYMKSIKGKLEEQRPERVKPFMTGAAEQIKHILANFKNYQFFIGENMNPDGMVALLDYREDGVTPYMIFFKDGLEMEKC
modifications: full-length

Columns and labels:
Assay type in all cases: cell-based
HeLa cells [1] = experiment: Cell penetrating efficiency of rhodamine-labelled TCTP-derived peptides, microplate fluorescence reader
Experimental: N-terminus of each peptides was labeled with fluorescence dye, rhodamine and C-terminus was protected. Peptide purity (>95%) was determined by HPLC. Synthesis of the peptides was requested to PEPTRON, Inc.
HeLa cell line (ATCC) was propagated in DMEM (GIBCO) supplemented with 10% FBS (GIBCO) and 100 units/mL penicillin-streptomycin. Cells were grown in a 5% CO2 incubator at 37° C.
HeLa cells were cultured in 48-well plate until they were 70˜80% grown up before a day of the experiment. The cells were washed with DMEM of 37° C. twice, and TCTP-derived peptides synthesized in Example 2-1) were treated to the culture medium in a dose dependent manner (0, 1, 5, 10, 50, 100 μM), then the cells was incubated for 15 minutes or 2 hours in an CO2 incubator at 37° C.
After the incubation, the cells were washed in cool PBS three times and immediately measured by a microplate fluorescence reader (BIO-TEK instruments, Inc., Vermont, USA) at emission 530 nm and excitation 590 nm for a measurement of rhodamine of intracellular uptake marker. The sensitivity of reader was set at 100 as a basic mode, but was lowered to 75 if the fluorescent signals were too strong. All experiments were conducted in triplet repeats for reproducibility (FIG. 2 and FIG. 3).

HeLa cells [2] = experiment: Cell penetrating activity of FITC-labelled mutant peptides, mean fluorescence intensity by FACS; conditions: 2 hours, FACS
Experimental: N-terminus of each peptide was labeled with fluorescence dye, FITC and C-terminus was protected. Peptide purity (>95%) was determined by HPLC. Synthesis of the peptides of the present invention was requested to PEPTRON, Inc.
HeLa cell line was propagated in DMEM supplemented with 10% FBS and 100 units/mL penicillin-streptomycin. Cells were grown in a 5% CO2 incubator at 37° C.
HeLa cells were cultured in 6-well plate until they were 70˜80% grown up before a day of the experiment. The cells were washed with DMEM of 37° C. twice, and TCTP-derived peptides synthesized in Example 5-1) were treated to the culture medium in a dose dependent manner (0, 1, 10, 100 μM), then the cells was incubated for 2 hours in an CO2 incubator at 37° C.,
After the incubation, the cells were washed in cool PBS two times and treated with 1 mg/ml trypsin for 15 min at 37° C. to digest peptides attached on cell membrane and washed in PBS twice again. Then, the cells were analyzed by FACS at emission 510 nm and excitation 530 nm for a measurement of FITC of intracellular uptake marker (FIGS. 7, 8 and 9). Intracellular translocation efficiency of mutant peptides, TCTP-CPP#1-35(SEQ ID Nos.: 20-54) was compared to wild type(WT), TCTP(1-10)(SEQ ID No.: 1) and control peptide, TAT(48-57).

HeLa cells [3] = conditions: treated for 48 hours; concentration not restated, 100 μM implied
Experimental: To confirm whether cell penetrating activity of the peptides of present invention was due to membrane weakness as a result of cytotoxicity, we measured cytotoxicity as follows. HeLa cells were cultured in 96-well plate until they were 70% grown up before a day of the experiment. Control TAT 48-57 and the mutant peptides at concentrations of 0, 1, 10, 100 μM were treated to DMEM supplemented with 10% FBS for 24 and 48 hours. After 2 hours in addition of 10 μl of CCK-8 to each well, absorbance at 450 nm was measured by KC4 plate reader(FIGS. 10, 11 and 12). As a result of toxicity at 100 μM for 24 hours, cytotoxicity of SEQ ID No.: 1, TCTP(1-10) was about 14% compared with control, and cytotoxicities of the other peptides, TCTP-CPP#3, 7 and 8 were insignificant considering standard deviation. When treated for 48 hours, all peptides had no cytotoxicity at 1 and 10 μM while cytotoxicities of TAT, TCTP(1-10), TCTP-CPP#3, 7 and 8 were about 53.8, 28.3, 46.2, 8.2 and 25.6%, respectively. […] Also, all of TCTP-CPP#27-35 had no cytotoxicity at 1 μM and 10 μM but had cytotoxicity at 100 μM.

BEAS-2B cell = experiment: Cellular uptake of deletion forms of TCTP, western blot of supernatant and lysate; conditions: 15 ug/ml
Experimental: To overexpress each of those deletion forms of TCTP (FIGS. 1a and 1c), pRSET vector that is capable of tagging 6 histidine was employed. Subcloning with DNA sequences corresponding to each deletion forms of TCTP was performed in the multicloning site of the vector. Then, the recombinant expression vector was introduced into E. coli BL21(DE3)(Novagen) or BL21(DE3)pLysS (Novagen). The expression of the deletion forms of TCTP was induced by IPTG (isopropyl (-D-thiogalactoside) for 3 hours, then the protein was isolated and purified by using Ni column which binds to polyhistidine.
BEAS-2B cell was treated with the deletion form of TCTP at the concentration of 15 ug/ml with anti-TCTP antibodies (FIG. 1b).
In addition, it was examined whether TCTP proteins of the present invention could be transferred to cellular interior for a short time, 5 minutes or 30 minutes. The experiment was performed by same method as the above (FIG. 1d).

Row | Molecule | intracellular translocation, dependence on concentration (HeLa cells [1]; 0-100 μM, 15 minutes or 2 hours) | concentration at which translocation was saturated (HeLa cells [1]; 2 hour treatment (FIG. 3)) | mean fluorescence intensity (MFI) relative to WT, MFI of WT at 10 μM set to 1 (HeLa cells [2]; peptide at 10 μM) | mean fluorescence intensity (MFI) relative to WT (HeLa cells [2]; peptide at 100 μM) | cytotoxicity (HeLa cells [3]) | protein in cell supernatant (western blot, anti-TCTP antibodies) (BEAS-2B cell; 24 hours later) | protein in cell supernatant (western blot, anti-TCTP antibodies) (BEAS-2B cell; incubation for 1 hour)
1 | GRKKRRQRRR (Human immunodeficiency virus; (1)..(10) 48-57 amino acid residue of TAT) [TAT(48-57), Control peptide, well-known PTD from HIV-1 TAT, reference compound] | transduced into cell in a dose and time-dependent manner | ≥ 1 µM | 6.1 times | 94.75 times | about 53.8% | – | –
2 | B1 | – | – | – | – | – | disappeared 24 hours later | existed in cell supernatants
